Measurements: patent publication US8343925B2, “Composition for improving brain function and method for improving brain function” (Calpis Co., Ltd., priority 2009, dated 2013)

Legend:
[1] = test system: scopolamine-induced amnesia; experiment: Y-shaped maze test of spontaneous alternation behavior, scopolamine-induced amnesia; type: in vivo; conditions: male ddY mice, scopolamine 1 mg/kg s.c. 30 min before test
Method: Male mice (n=15) of the ddY strain (approximately 7-week old) were used, and they took food and water ad lib. Test substances used were 9.0 mg/kg weight of Ile-Pro-Pro. The test substances were administered to the mice once orally 60 minutes before the execution of a Y-shaped maze test for evaluation of spontaneous alternation behavior. Further, 30 minutes before the execution of the Y-shaped maze test, 1 mg/kg weight of scopolamine was subcutaneously administered on the backs of the mice in order to induce brain dysfunction (dysmnesia and/or cognitive impairment) in the mice. In the Y-shaped maze test, a Y-shaped maze was used as an experimental device, in which the length of each arm was 40 cm, the height of the wall was 12 cm, the width of the floor was 3 cm, and the width of the upper part was 10 cm, and three arms were connected to each other at an angle of 120 degrees. Each of the mice was placed at the tip of any one of the arms of the Y-shaped maze, and then let go to freely explore in the maze for 8 minutes. The sequence of the arms each of the mice entered was recorded. The number of entries by each of the mice for each of the arms during the measurement time was counted to be the total number of entries. […] The percentage of spontaneous alternation behavior was calculated by dividing the number of spontaneous alternation behavior by a number obtained by subtracting 2 from the total number of entries, and multiplying a resultant number by 100. […] The measured values were expressed in the form of mean±standard error for each group. A significant difference between the control group and the scopolamine control group was calculated using Student's t-test.
Male mice (n=15) of the ddY strain (approximately 7-week old) were used, and they took food and water ad lib. […] The arms each of the mice entered were sequentially recorded. The number of entries by each of the mice for each of the arms during the measurement time was counted to be the total number of entries. […]

[2] = target: angiotensin-converting enzyme (ACE) (Homo sapiens, UniProt P12821); conditions: cited from earlier work
angiotensin-converting enzyme (ACE), sequence (P12821 30-1306, species assumed): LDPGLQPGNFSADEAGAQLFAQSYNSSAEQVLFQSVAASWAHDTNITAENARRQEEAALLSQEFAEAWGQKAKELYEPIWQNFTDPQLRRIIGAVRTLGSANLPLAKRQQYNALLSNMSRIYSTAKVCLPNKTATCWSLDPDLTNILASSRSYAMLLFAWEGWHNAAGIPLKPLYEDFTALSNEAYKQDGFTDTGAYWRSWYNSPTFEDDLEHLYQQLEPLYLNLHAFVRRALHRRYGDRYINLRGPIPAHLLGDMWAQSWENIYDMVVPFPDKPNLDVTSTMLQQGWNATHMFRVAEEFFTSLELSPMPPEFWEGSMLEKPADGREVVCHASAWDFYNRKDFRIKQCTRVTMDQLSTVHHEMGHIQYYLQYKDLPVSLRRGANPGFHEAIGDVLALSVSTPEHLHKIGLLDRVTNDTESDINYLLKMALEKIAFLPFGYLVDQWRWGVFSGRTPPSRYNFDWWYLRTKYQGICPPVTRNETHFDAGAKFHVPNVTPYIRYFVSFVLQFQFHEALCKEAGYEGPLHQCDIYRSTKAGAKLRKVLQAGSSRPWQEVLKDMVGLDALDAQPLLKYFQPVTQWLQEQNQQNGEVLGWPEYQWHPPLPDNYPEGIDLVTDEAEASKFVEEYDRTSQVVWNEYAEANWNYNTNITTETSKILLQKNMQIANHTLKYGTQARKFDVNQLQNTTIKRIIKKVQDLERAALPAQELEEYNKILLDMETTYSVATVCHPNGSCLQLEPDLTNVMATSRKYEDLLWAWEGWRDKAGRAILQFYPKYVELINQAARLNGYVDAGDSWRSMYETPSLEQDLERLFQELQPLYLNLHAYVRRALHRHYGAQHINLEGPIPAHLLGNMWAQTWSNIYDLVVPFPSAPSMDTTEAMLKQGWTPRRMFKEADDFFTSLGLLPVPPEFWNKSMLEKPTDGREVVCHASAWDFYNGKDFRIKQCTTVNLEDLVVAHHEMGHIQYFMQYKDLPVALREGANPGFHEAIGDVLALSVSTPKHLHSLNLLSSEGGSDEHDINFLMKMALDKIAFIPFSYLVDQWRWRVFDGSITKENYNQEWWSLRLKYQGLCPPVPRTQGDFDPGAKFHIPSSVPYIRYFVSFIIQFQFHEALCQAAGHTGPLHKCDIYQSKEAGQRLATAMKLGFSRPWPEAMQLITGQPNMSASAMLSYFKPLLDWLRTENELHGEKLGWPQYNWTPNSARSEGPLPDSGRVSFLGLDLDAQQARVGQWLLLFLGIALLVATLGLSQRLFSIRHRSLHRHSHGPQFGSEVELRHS

[3] = test system: blood pressure; conditions: oral administration; cited from earlier work
[4] = test system: increase in blood pressure due to cold stress; conditions: oral administration; cited from earlier work
[5] = 10 mg/kg weight once orally 60 min before test

Substance	prophylactic activity against amnesia (percentage of spontaneous alternation behavior) ([1]; 9.0 mg/kg weight once orally 60 min before test)	ACE inhibitory activity [2]	hypotensive activity [3]	inhibitory activities on increase in blood pressure due to cold stress or on decrease in markers of immune function [4]	prophylactic activity against amnesia (percentage of spontaneous alternation behavior) [1, 5]
Ile-Pro-Pro	had a prophylactic activity against amnesia	has an ACE inhibitory activity	hypotensive lowering activity	exhibit inhibitory activities on increase in blood pressure due to cold stress	
Ser-Pro-Pro					had a prophylactic activity against amnesia
Val-Pro-Pro [Val-Pro-Pro (VPP), reference compound]				exhibit inhibitory activities on increase in blood pressure due to cold stress	
Leu-Pro-Pro					had a prophylactic activity against amnesia
